Consider 24 compounds from patent US20050282818A1, “Ubiquitin ligase inhibitors” (Rigel Pharmaceuticals, Inc., priority 2004, published 2005).

Structures are written as SMILES. Like-named read-outs stand apart in the source and are kept apart here.

In one experiment the target is T1, TRAF6/Uev1A/Ubc13 (Homo sapiens, UniProt Q9Y4K3).
T1 sequence (Q9Y4K3 1-522): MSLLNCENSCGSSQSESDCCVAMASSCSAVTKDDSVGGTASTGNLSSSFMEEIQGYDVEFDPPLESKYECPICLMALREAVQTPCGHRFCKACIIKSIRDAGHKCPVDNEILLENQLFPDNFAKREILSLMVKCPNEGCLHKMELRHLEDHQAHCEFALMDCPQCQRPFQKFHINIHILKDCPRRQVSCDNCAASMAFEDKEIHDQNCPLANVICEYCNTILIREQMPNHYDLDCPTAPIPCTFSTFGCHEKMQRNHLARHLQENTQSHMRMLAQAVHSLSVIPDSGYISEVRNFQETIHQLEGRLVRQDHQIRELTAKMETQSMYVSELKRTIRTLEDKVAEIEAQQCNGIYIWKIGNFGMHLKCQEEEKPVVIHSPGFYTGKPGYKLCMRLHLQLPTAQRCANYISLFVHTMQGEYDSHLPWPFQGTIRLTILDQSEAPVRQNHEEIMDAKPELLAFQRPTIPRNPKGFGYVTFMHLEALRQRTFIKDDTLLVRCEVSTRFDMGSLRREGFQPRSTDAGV
The experiment is described as follows: TRAF6/Uev1A/Ubc13 plate-based ubiquitin ligase assay. The format is biochemical. Here is the method:
For the assays described below, the TRAF6/Uev1A/UBC13 assay is the biochemical plate-based assay of TRAF6 ligase activity using Ubc13 as the E2 enzyme. The gel-based assay is the biochemical solution-based TRAF6 ligase assay (by SDS-PAGE and Western blot) to confirm the plate-based ELISA assay. The APC assay is an assay which is another E3 ligase (APC2/APC11) biochemical assay.
A 96-well Ni-plate was blocked with 100 μl of 1% casein in PBS for 1 hour at room temperature. The plates were then washed three times with 200 μl of 1×PBS and 80 μl of a reaction buffer was added per well which contained 50 ng of Flag-ubiquitin, 50 ng of His-ubiquitin, 62.5 mM Tris pH 7.5, 6.25 mM MgCl2, 1.0 mM DTT, and 2 μM ATP. To each well was added 10 μl of a solution of the compound in DMSO. The reaction was started by adding 10 μl of a solution consisting of 10 ng human E1, 25 ng each of Uev1a and Ubc13, and 100 ng TRAF6 in the reaction buffer. The plates were shaken for 10 minutes and incubate at room temperature for 1 hour. After the incubation, the plates were washed three times with 200 μl 1×PBS in 0.05% Tween and 100 μl of an antibody mix consisting of anti-Flag (1:30,000 dilution; Sigma F-3165) and anti-Mouse IgG-HRP (1/150,000 dilution; Jackson Immunoresearch #115-035-146) in 1×PBS with 0.25% BSA. The plates were then incubated for another 1 hour at room temperature, and after incubation the plate was washed three times with 200 μl 1×PBS with 0.05% Tween. The amount of ubiquitin was measured by adding 100 μl of Lumino substrate (1:5 dilution) and reading the luminescence with a fluorimeter.
Table 2 below illustrates the inhibitory activity of the compounds of the invention determined by the TRAF6/Uev1A/Ubc13 assay as well as in the ICAM, APC and the ROC1/CUL1 Ubiquitin Ligase Assay (SCF Assay). The IC50 values were determined using a various concentrations of the compounds.

The next experiment deals with A549 cells. The experiment is described as follows: Cell proliferation PAD assay, A549. The settings on record: Homo sapiens, 48 hours. In kind it is cell-based. In a few lines:
(§1)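 Plate 2,000 cells per well, then add compound after 24 h as duplicate 6.3-fold dilutions, with 10 mM master stock diluted 500-fold on transfer. Grow 48 h at 37 °C in 5% CO2, fix with formamide, stain nuclei with DAPI, and count cells by imaging.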

The next experiment relates to H1299 cells. The experiment is described as follows: Cell proliferation PAD assay, H1299. In kind it is cell-based. The settings on record: Homo sapiens, 48 hours. A digest of the protocol: as §1
[1] abbreviates: NCI-H1299, 6pt, read-out: H1299 6pt.
Where [2] appears, read: NCI-H1299, 3pt, read-out: H1299 3pt.

`COC(=O)c1ccc(Nc2ccc3nonc3c2S(=O)(=O)Nc2ccc(C(=O)OC)cc2)cc1` [compound 10, methyl 4-{[(5-{[4-(methoxycarbonyl)phenyl]amino}-2,1,3-benzoxadiazol-4-yl)sulfonyl]amino}benzoate]: the IC50 against TRAF6/Uev1A/Ubc13 is not below 20 µM; in the experiment on A549 cells (6pt, read-out: A549 6pt), not below 20 µM; in the experiment with H1299 cells (setting [1]) it was not below 20 µM.
On to `O=S(=O)(Nc1cccc2cnccc12)c1cccc2nonc12` [compound 12, N-isoquinolin-5-yl-2,1,3-benzoxadiazole-4-sulfonamide], for which the IC50 is not below 20 µM at TRAF6/Uev1A/Ubc13; not below 20 µM in the experiment with A549 cells (3pt, read-out: A549 3pt); not below 20 µM in the experiment with H1299 cells (setting [2]).
Regarding `Cc1ccc(F)cc1NS(=O)(=O)c1cccc2nonc12` [compound 13, N-(5-fluoro-2-methylphenyl)-2,1,3-benzoxadiazole-4-sulfonamide], the IC50 on TRAF6/Uev1A/Ubc13 was not below 20 µM; in the experiment on A549 cells (3pt, read-out: A549 3pt), not below 20 µM; with H1299 cells (setting [2]), not below 20 µM.
As for `O=S(=O)(Nc1ccc(Oc2ncc(C(F)(F)F)cc2Cl)cc1)c1cccc2nonc12` [compound 62, N-(4-{[3-chloro-5-(trifluoromethyl)pyridin-2-yl]oxy}phenyl)-2,1,3-benzoxadiazole-4-sulfonamide], the IC50 against TRAF6/Uev1A/Ubc13 was not below 20 µM; in the experiment on A549 cells (3pt, read-out: A549 3pt), not below 20 µM; in the experiment with H1299 cells (setting [2]) it was not below 20 µM.
With `CC(C)(C)OC(=O)N1CCN(c2ccc([N+](=O)[O-])c3nonc23)CC1` [compound 72, Tert-butyl 4-(7-nitro-2,1,3-benzoxadiazol-4-yl)piperazine-1-carboxylate], the IC50 against TRAF6/Uev1A/Ubc13 was not below 20 µM; in the experiment on A549 cells (3pt, read-out: A549 3pt), not below 20 µM; with H1299 cells (setting [2]), not below 20 µM.
`O=S(=O)(Nc1cccc2nonc12)c1ccc(Oc2ccncc2)cc1` [compound 80, N-2,1,3-benzoxadiazol-4-yl-4-(pyridin-4-yloxy)benzenesulfonamide]: the IC50 is not below 20 µM against TRAF6/Uev1A/Ubc13; not below 20 µM in the experiment with A549 cells (3pt, read-out: A549 3pt); not below 20 µM in the experiment on H1299 cells (setting [2]).
`O=[N+]([O-])c1ccc(N2CCN(CCN3CCOCC3)CC2)c2nonc12` [compound 85, 4-[4-(2-morpholin-4-ylethyl)piperazin-1-yl]-7-nitro-2,1,3-benzoxadiazole]: the IC50 against TRAF6/Uev1A/Ubc13 is not below 20 µM; in the experiment with A549 cells (3pt, read-out: A549 3pt) it was not below 20 µM; in the experiment with H1299 cells (setting [2]), not below 20 µM.
Regarding `O=S(=O)(Nc1cccc2nonc12)c1ccc(Oc2cccnc2)cc1` [compound 86, N-2,1,3-benzoxadiazol-4-yl-4-(pyridin-3-yloxy)benzenesulfonamide], the IC50 on TRAF6/Uev1A/Ubc13 was not below 20 µM; in the experiment on A549 cells (3pt, read-out: A549 3pt), not below 20 µM; in the experiment on H1299 cells (setting [2]), not below 20 µM.
On to `O=S(=O)(Nc1cccc2nonc12)c1ccc(Oc2ccccc2)cn1` [compound 87, N-2,1,3-benzoxadiazol-4-yl-5-phenoxypyridine-2-sulfonamide], for which the IC50 is not below 20 µM against TRAF6/Uev1A/Ubc13; not below 20 µM in the experiment on A549 cells (3pt, read-out: A549 3pt); not below 20 µM in the experiment on H1299 cells (setting [2]).
In the case of `CC(=O)N1CCN(c2ccc([N+](=O)[O-])c3nonc23)CC1` [compound 88, 4-(4-acetylpiperazin-1-yl)-7-nitro-2,1,3-benzoxadiazole], the IC50 on TRAF6/Uev1A/Ubc13 is not below 20 µM; in the experiment on A549 cells (3pt, read-out: A549 3pt), not below 20 µM; in the experiment with H1299 cells (setting [2]), not below 20 µM.
As for `O=S(=O)(Nc1ccc(Oc2ncccn2)c(Cl)c1)c1cccc2nonc12` [compound 91, N-[3-chloro-4-(pyrimidin-2-yloxy)phenyl]-2,1,3-benzoxadiazole-4-sulfonamide], the IC50 was not below 20 µM on TRAF6/Uev1A/Ubc13; not below 20 µM in the experiment with A549 cells (3pt, read-out: A549 3pt); not below 20 µM with H1299 cells (setting [2]).
Take `O=S(=O)(Nc1cccc2nonc12)c1ccc(Oc2ccccc2)cc1` [compound 93, N-2,1,3-benzoxadiazol-4-yl-4-phenoxybenzenesulfonamide]: the IC50 on TRAF6/Uev1A/Ubc13 is 1 to 20 µM; in the experiment with A549 cells (6pt, read-out: A549 6pt) it was not below 20 µM; with H1299 cells (setting [1]), not below 20 µM.
Regarding `O=[N+]([O-])c1ccc(Oc2ccc(NS(=O)(=O)c3cccc4nonc34)cc2)cc1` [compound 101, N-[4-(4-nitrophenoxy)phenyl]-2,1,3-benzoxadiazole-4-sulfonamide], the IC50 against TRAF6/Uev1A/Ubc13 was not below 20 µM; in the experiment on A549 cells (3pt, read-out: A549 3pt) it was not below 20 µM; in the experiment on H1299 cells (setting [2]) it was not below 20 µM.
Consider `O=S(=O)(Nc1ccc(Oc2ccccc2)cc1)c1cccc2nonc12` [compound 102, N-(4-phenoxyphenyl)-2,1,3-benzoxadiazole-4-sulfonamide], for which the IC50 on TRAF6/Uev1A/Ubc13 was not below 20 µM; with A549 cells (3pt, read-out: A549 3pt) it was not below 20 µM; in the experiment with H1299 cells (setting [2]), not below 20 µM.
Take `O=S(=O)(Nc1ccc(Oc2cc(C(F)(F)F)ccn2)cc1)c1cccc2nonc12` [compound 103, N-(4-{[4-(trifluoromethyl)pyridin-2-yl]oxy}phenyl)-2,1,3-benzoxadiazole-4-sulfonamide]: the IC50 against TRAF6/Uev1A/Ubc13 was not below 20 µM; in the experiment on A549 cells (3pt, read-out: A549 3pt), not below 20 µM; in the experiment on H1299 cells (setting [2]) it was not below 20 µM.
`O=S(=O)(Nc1ccc(Oc2ccc(Cl)cc2)cc1)c1cccc2nonc12` [compound 104, N-[4-(4-chlorophenoxy)phenyl]-2,1,3-benzoxadiazole-4-sulfonamide]: the IC50 was not below 20 µM on TRAF6/Uev1A/Ubc13; not below 20 µM in the experiment with A549 cells (3pt, read-out: A549 3pt); not below 20 µM in the experiment on H1299 cells (setting [2]).
In the case of `O=[N+]([O-])c1ccc(N2CCN(c3ccc(Cl)c(C(F)(F)F)c3)CC2)c2nonc12` [compound 105, {4-[4-chloro-3-(trifluoromethyl)phenyl]piperazin-1-yl}-7-nitro-2,1,3-benzoxadiazole], the IC50 was not below 20 µM against TRAF6/Uev1A/Ubc13; not below 20 µM with A549 cells (3pt, read-out: A549 3pt); not below 20 µM in the experiment on H1299 cells (setting [2]).
As to `O=[N+]([O-])c1ccc(N2CCN(c3cccc(C(F)(F)F)c3)CC2)c2nonc12` [compound 106, 4-nitro-7-{4-[3-(trifluoromethyl)phenyl]piperazin-1-yl}-2,1,3-benzoxadiazole], the IC50 is not below 20 µM at TRAF6/Uev1A/Ubc13; not below 20 µM with A549 cells (3pt, read-out: A549 3pt); not below 20 µM in the experiment with H1299 cells (setting [2]).
Consider `O=[N+]([O-])c1ccc(N2CCN(c3ccncc3)CC2)c2nonc12` [compound 108, 4-nitro-7-(4-pyridin-4-ylpiperazin-1-yl)-2,1,3-benzoxadiazole], for which the IC50 at TRAF6/Uev1A/Ubc13 was not below 20 µM; with A549 cells (3pt, read-out: A549 3pt), 1 to 20 µM; in the experiment on H1299 cells (setting [2]), not below 20 µM.
Regarding `CN1CCN(c2ccc([N+](=O)[O-])c3nonc23)CC1` [compound 110, 4-(4-methylpiperazin-1-yl)-7-nitro-2,1,3-benzoxadiazole], the IC50 against TRAF6/Uev1A/Ubc13 is not below 20 µM; in the experiment with A549 cells (3pt, read-out: A549 3pt), not below 20 µM; in the experiment with H1299 cells (setting [2]), not below 20 µM.
As to `O=[N+]([O-])c1ccc(N2CCNCC2)c2nonc12` [compound 112, 4-nitro-7-piperazin-1-yl-2,1,3-benzoxadiazole], the IC50 against TRAF6/Uev1A/Ubc13 was not below 20 µM; with A549 cells (3pt, read-out: A549 3pt) it was not below 20 µM; with H1299 cells (setting [2]), not below 20 µM.
Consider `O=S(=O)(Nc1cccc2nsnc12)c1ccc(Oc2cccnc2)cc1` [compound 116, N-2,1,3-benzothiadiazol-4-yl-4-(pyridin-3-yloxy)benzenesulfonamide], for which the IC50 against TRAF6/Uev1A/Ubc13 is not below 20 µM; with A549 cells (3pt, read-out: A549 3pt), 1 to 20 µM; in the experiment with H1299 cells (setting [2]), not below 20 µM.
Regarding `N#Cc1cccnc1N1CCN(c2ccc([N+](=O)[O-])c3nonc23)CC1` [compound 118, 2-[4-(7-nitro-2,1,3-benzoxadiazol-4-yl)piperazin-1-yl]nicotinonitrile], the IC50 was 1 to 20 µM against TRAF6/Uev1A/Ubc13; not below 20 µM with A549 cells (3pt, read-out: A549 3pt); not below 20 µM in the experiment with H1299 cells (setting [2]).
Regarding `O=S(=O)(Oc1ccc(N2CCN(S(=O)(=O)c3cccc4nonc34)CC2)cc1)c1cccc2nonc12` [compound 139, 4-[4-(2,1,3-benzoxadiazol-4-ylsulfonyl)piperazin-1-yl]phenyl 2,1,3-benzoxadiazole-4-sulfonate], the IC50 on TRAF6/Uev1A/Ubc13 is 1 to 20 µM; in the experiment on A549 cells (3pt, read-out: A549 3pt), not below 20 µM; in the experiment on H1299 cells (setting [2]) it was not below 20 µM.
